Tested on: fever induced by lipopolysaccharide (LPS)
Test: LPS-induced fever, antipyretic effect of leaf extract (Example 9-1)
Format: in vivo, Sprague-Dawley male white rats
Method: Test animals were used to determine antipyretic effects of the Stauntonia Hexaphylla leaf extract and fractions thereof prepared in Example 1.
The test animals herein used were 5-week old Sprague-Dawley male white mice obtained from Samtako Inc. (Korea). The test animals were bred at a temperature of 20° C. to 24° C. and at a humidity of 60% to 70% under the day-night illumination condition at 12-hour intervals and were freely fed with water and feed. The feed used herein was a solid feed (Samyang Feed Co., Korea). The test animals were bred under the same conditions for 7 days, adapted to laboratory environments and then used for testing.
Specifically, 5 mice were randomly selected from the test animals and set as a first group, and 500 μg/kg of lipopolysaccharide (LPS, Sigma, USA) was intraperitoneally injected into the mice to induce fever. Body temperature was measured as follows. Rectal body temperature was measured using a rectal thermometer (Portable Thermocouple Thermometer (Physitemp Instruments, USA) and a stainless steel rectal probe for rats (Physitemp Instruments, USA) and body temperatures of SD mice were measured three times before the test to minimize an temperature increase caused by temperature measurement stress.
First, in order to determine antipyretic effects of the Stauntonia Hexaphylla leaf hot water extract, a negative control group (LPS) not treated with any sample, a first positive control group (APAP) orally administered with 50 mg/kg of acetaminophen (APAP, Sigma, USA), a conventional drug, found to have antipyretic effect, and a second positive control group (Dexamethasone) orally administered with 1 mg/kg of dexamethasone (Sigma, USA) were used.
First, 500 μg/kg of a fever-inducing substance (LPS) was intraperitoneally injected (i.p.) into the test animals that finished preparations for minimization of temperature increase caused by temperature measurement stress, and a non-treated group (LPS), a group (SHL-200) orally administered with 200 mg/kg of the Stauntonia Hexaphylla leaf hot water extraction, a group (APAP) orally administered with 50 mg/kg of acetaminophen, and a group (Dexamethasone) orally administered with 1 mg/kg of dexamethasone were prepared according to type of test groups. In addition, 200 mg/kg of the Stauntonia Hexaphylla leaf hot water extract was orally administered one hour after administration of the fever-inducing substance (SHL-200 (1 h)), and rectal temperatures were measured at one hour, 4 hours and 8 hours over 8 hours in total after the administration of the fever-inducing substance. The measurement results are shown in FIG. 12 and the following Table 3. Values of the following Table 3 mean body temperatures (° C.) measured at different times.

| Compound | body temperature (rectal) (0 h, 1 mg/kg oral with LPS 500 μg/kg i.p.) | body temperature (rectal) (1 h, 1 mg/kg oral with LPS 500 μg/kg i.p.) | body temperature (rectal) (4 h, 1 mg/kg oral with LPS 500 μg/kg i.p.) | body temperature (rectal) (8 h, 1 mg/kg oral with LPS 500 μg/kg i.p.) | body temperature (rectal) (0 h, 50 mg/kg oral with LPS 500 μg/kg i.p.) | body temperature (rectal) (1 h, 50 mg/kg oral with LPS 500 μg/kg i.p.) | body temperature (rectal) (4 h, 50 mg/kg oral with LPS 500 μg/kg i.p.) | body temperature (rectal) (8 h, 50 mg/kg oral with LPS 500 μg/kg i.p.) |
| --- | --- | --- | --- | --- | --- | --- | --- | --- |
| C[C@@H]1C[C@H]2[C@@H]3CCC4=CC(=O)C=C[C@]4(C)[C@@]3(F)[C@@H](O)C[C@]2(C)[C@@]1(O)C(=O)CO [Dexamethasone, dexamethasone] | 37.2 °C | 37.3 ± 0.52 °C | 37.6 ± 0.12 °C | 37.73 ± 0.13 °C |  |  |  |  |
| CC(=O)Nc1ccc(O)cc1 [APAP, acetaminophen] |  |  |  |  | 37.2 °C | 36.58 ± 0.67 °C | 37.53 ± 0.59 °C | 37.78 ± 0.13 °C |

Reference: US9370542B2, “Medical composition containing Stauntonia hexaphylla extract” (JEONNAM BIOINDUSTRY FOUNDATION, priority 2011, dated 2016)
